Measured values as given in patent publication US20240158439A1, “INHIBITORS OF ANTIGEN PRESENTATION BY MHC CLASS II HLA-DRB1*15:01 MOLECULES WITH ENHANCED METABOLIC STABILITY” (Provid Pharmaceuticals Inc., priority 2021, published 2024).
Several values for one entry are separate records, joined by “and”; a condition that tells them apart may be missing. Equal values may be shown once. Read-outs that look alike come from different tables or passages of the source. Where a SMILES comes first, the peptide text is derived from it. [ ]: non-standard residue; d: D form. The star is where a group is joined. NH(CH2CH2O)4Me = COCCOCCOCCOCCN*; Tic = O=C(O)[C@@H]1Cc2ccccc2CN1; Chg = N[C@H](C(=O)O)C1CCCCC1; Tle = CC(C)(C)[C@H](N)C(=O)O; NHCH2CH2OMe = COCCN*

Tests used:
HLA-DRB1*15:01 = target: T1, HLA-DRB1*15:01 (Homo sapiens, UniProt P01903+P01911); test: HLA II binding assay (competitive, biotinylated reference peptide)
T1 construct: endogenous in cells; host or cells: EBV homozygous cell lines (human)

[1] = Mouse pharmacokinetics/metabolism study; assay type: in vivo, C57BL/6J mice
Description: The pharmacokinetics/metabolism study was performed in non-fasted C57BL/6J mice. Dose formulation was prepared on the day of treatment, using 10% v/v DMSO solution and 90% sterile water for injection as vehicle. Blood samples were collected at 0.25, 0.5, 1, 2, 4, 6, 8, 12 and 24 hr post-dose (n=9 mice/group, staggered sampling with 3 mice/time point). At each time point, under isoflurane anesthesia approximately 70 μL of blood was collected through retro orbital plexus puncture and transferred into a pre-labeled tube. 50 μL of blood was taken from the prelabeled tube and it was added into a labelled tube containing 200 μL of acetonitrile to precipitate proteins. Immediately, blood samples were vortexed to facilitate mixing of acetonitrile with the blood. Samples were kept on dry ice at −70° C. until analysis. [table] Bioanalysis was performed using fit-for-purpose analytical method using LC-MS/MS method for the quantification of PV-267 (Parent) or PV-3212 (Parent) and PV-623 (Metabolite) in mice blood samples and the linearity range was 2 to 2500 ng/mL for PV-267 (Parent), PV-3212 (Parent) and PV-623 (metabolite). The blood pharmacokinetic parameters for PV-267 and PV-3212 were calculated by using standard non-compartmental analysis (Phoenix software, version 6.4, Pharsight Corporation, Mountain View, Calif. 94040/USA) using the sparse sampling model and linear trapezoidal with linear interpolation calculation method. Pharmacokinetic Parameters for PV-623 (metabolite) were not calculated due to insufficient blood concentrations.

[2] = tested on: BC3 T cells + autologous hPBMCs from DRB1*15:01-positive MS patient; test: Human cellular immunology assay (IFN-gamma ELISPOT); assay type: cell-based; settings: inhibition of IFN-gamma response, FIG. 2
Description: After washing and blocking, autologous APCs (irradiated PBMCs) pretreated with different concentrations of the DRB1*15:01 inhibitors for 45 min were added on the plate (0.3−0.5×10^6 cells per well), followed by the addition of Ag or positive control using PHA (Sigma-Aldrich) or anti-human CD3 mAb (Bio X Cell; OKT3) along with BC3 T cells or enriched PBMC T cells (4,000-20,000 cells per well). Plates were incubated at 37° C. for 24 h, then washed and biotinylated anti-human IFN-γ mAb (Thermo Scientific; B133.5) was added at 4° C., overnight. After that, plates were incubated with Streptavidin AP (Invitrogen) and developed with BCIP/NBT Phosphatase substrate (KPL) after washing. After developing of the plates, image analysis of ELISPOT assays was performed on a Series 2 ImmunoSpot analyzer and software (CTL) as described previously (Kawamura, K., et al., (2008) J. Immunol. 181: 3202-3211).

[3] = tested on: Goodpasture antigen (α3(IV)NC1); settings: Huynh et al. 2019; cited from earlier work
[4] = Pharmacokinetics of PV-267 in rats and mice
[5] = tested on: EAE in DRB1*15:01 transgenic mice; settings: cited from earlier work
[6] = Table 2, DRB1*15:01 binding, unit inferred, nM, read-out: Avg IC50
[7] = C57BL/6J, mouse, in vivo, ip, 10 mg/kg

Work on `CC(=O)N[C@H](C(=O)N[C@H](C(=O)N[C@@H](CCCNC(=N)N)C(=O)N1Cc2ccccc2C[C@H]1C(=O)N[C@@H](Cc1ccccc1)C(=O)O)C1CCCCC1)C(C)C` [PV-623, Ac-V-(Chg)-R-(Tic)-F—OH] (Ac-V[Chg]R[Tic]F-OH) yielded an IC50 (HLA-DRB1*15:01; [6]) of 26 nM, a Mean Plasma Concentration 0.25 hr ([1]; acid metabolite PV-623 after PV-267 10 mg/kg IP, 0.25 hr) of 0.169 µg/mL and a Mean Plasma Concentration 0.5 hr ([1]; acid metabolite PV-623 after PV-267 10 mg/kg IP, 0.5 hr) of 0.0653 µg/mL. The Mean Plasma Concentration 0.25 hr ([1]; acid metabolite PV-623 after PV-3212 10 mg/kg IP, 0.25 hr) was 0.00854 µg/mL and the Mean Plasma Concentration 0.5 hr ([1]; acid metabolite PV-623 after PV-3212 10 mg/kg IP, 0.5 hr) was 0.00357 µg/mL.
With `COCCNC(=O)[C@H](Cc1ccccc1)NC(=O)[C@@H]1Cc2ccccc2CN1C(=O)[C@H](CCCNC(=N)N)NC(=O)[C@@H](NC(=O)[C@@H](NC(C)=O)C(C)C)C1CCCCC1` [PV-3212, Ac-V-(Chg)-R-(Tic)-F—NH(CH2CH2O)1CH3] (Ac-V[Chg]R[Tic]F-NHCH2CH2OMe) the Cmax [1, 7] was 0.741 µg/mL, the half-life [1, 7] was 3.23 h and the level at 0.25 h [1, 7] was 0.741 µg/mL. The level at 0.5 h [1, 7] was 0.195 µg/mL, the “metabolism to the acid PV-623” value ([1]; mouse, in vivo) was “remarkably stable” and the Mean Plasma Concentration 0.25 hr ([1]; mouse, in vivo, ip, 10 mg/kg) was 0.741 µg/mL. For the same compound, the Mean Plasma Concentration 0.5 hr ([1]; mouse, in vivo, ip, 10 mg/kg) was 0.195 µg/mL and the “potency compared to PV-267 in human cellular assay” value [2] was “more potent than the simple amide (PV-267)”.
For `CC(=O)N[C@H](C(=O)N[C@H](C(=O)N[C@@H](CCCNC(=N)N)C(=O)N1Cc2ccccc2C[C@H]1C(=O)N[C@@H](Cc1ccccc1)C(N)=O)C1CCCCC1)C(C)C` [PV-267, Ac-V-(Chg)-R-(Tic)-F—NH2] (Ac-V[Chg]R[Tic]F-NH2), the “autoreactivity to the Goodpasture antigen” value [3] is listed as “attenuates autoreactivity to the Goodpasture antigen”, the IC50 (HLA-DRB1*15:01; read-out: binding IC50) is listed as 2.5 nM and the “ratio of metabolite PV-623 to parent at 0.25 hr” value ([1]; 10 mg/kg IP, 0.25 hr) is listed as 0.61 and 0.67. For the same compound, the “ratio of metabolite PV-623 to parent at 0.5 hr” value ([1]; 10 mg/kg IP, 0.5 hr) was 0.73, the level at 0.25 h ([1]; C57BL/6J, mouse, plasma, ip, 10 mg/kg, parent, text b45, 0.25 hr, read-out: plasma concentration at 0.25 hr) was 0.275 µg/mL and the level at 0.5 h ([1]; C57BL/6J, mouse, plasma, ip, 10 mg/kg, parent, text b45, 0.5 hr, read-out: plasma concentration at 0.5 hr) was 0.0915 µg/mL. The Cmax ([1]; C57BL/6J, mouse, whole blood, single IP 10 mg/kg, observed at 0.25 hr post dose, read-out: Parent peak blood concentration) was 0.275 µg/mL, the “metabolism to the acid PV-623” value ([1]; mouse PK studies) was “rapidly metabolized to PV-623” and the Mean Plasma Concentration 0.25 hr ([1]; parent compound, 10 mg/kg IP, 0.25 hr) was 0.275 µg/mL. The Mean Plasma Concentration 0.5 hr ([1]; parent compound, 10 mg/kg IP, 0.5 hr) was 0.0915 µg/mL, the “in vivo conversion to C-terminal acid PV-623” value [4] was “significantly converted to the C-terminal acid PV-623” and the “efficacy in animal models of multiple sclerosis” value [5] was “efficacy in animal models of multiple sclerosis”.
In the case of `COCCOCCOCCOCCNC(=O)[C@H](Cc1ccccc1)NC(=O)[C@@H]1Cc2ccccc2CN1C(=O)[C@H](CCCNC(=N)N)NC(=O)[C@@H](NC(=O)[C@@H](NC(C)=O)C(C)C)C1CCCCC1` [PV-3213, Ac-V-(Chg)-R-(Tic)-F—NH(CH2CH2O)4CH3] (Ac-V[Chg]R[Tic]F-{NH(CH2CH2O)4Me}), the “potency compared to PV-267 in human cellular assay” value [2] is reported as “at least as potent as the unsubstituted PV-267”.
`CC(=O)N[C@H](C(=O)N[C@H](C(=O)N[C@@H](CCCNC(=N)N)C(=O)N1Cc2ccccc2C[C@H]1C(=O)N[C@@H](Cc1ccccc1)C(N)=O)C1CCCCC1)C(C)(C)C` [PV-590] (Ac-[Tle][Chg]R[Tic]F-NH2) gave an IC50 (HLA-DRB1*15:01; [6]) of 1.3 nM.
